Experimental data reported in article PMC6451745, “Development and dosimetry of ^203Pb/^212Pb-labelled PSMA ligands: bringing “the lead” into PSMA-targeted alpha therapy?” (European Journal of Nuclear Medicine and Molecular Imaging, 2019).
Like-named read-outs stand apart in the source and are kept apart here. One block for each compound: values may come before it.

What was measured:
[1] = set-up: method as in PMID 25883127; settings: previously determined; cited from earlier work
[2] = set-up: method as in PMID 10755652, doi:10.1039/C39890000145, doi:10.1021/ja00130a008; settings: cited from earlier work
PSMA [3] = target: T1, PSMA (Homo sapiens, UniProt Q04609); set-up: method as in PMID 25883127; settings: reference compound; cited from earlier work
T1 construct: 1 × 10^5 C4-2 cells in Opti-MEM were added to each well; host or cells: C4-2 cells (LNCaP subline)

[4] = cited from earlier work
[5] = set-up: method as in PMID 28891033; settings: projected treatment activity 1 GBq; cited from earlier work
[6] = set-up: method as in PMID 28408529; settings: projected treatment activity 6–8 MBq; cited from earlier work
PSMA [7] = target: T1, PSMA; experiment: Competitive binding assay on C4-2 cells; settings: reference ^68Ga-labelled PSMA-HBED-CC dimer (PSMA-10), mean ± SD
Procedure: (§1) In vitro and in vivo experiments were performed using the PSMA-positive C4-2 cell line, a subline of the LNCaP (lymph node carcinoma of the prostate) cell line (CRL-3314; American Type Culture Collection). C4-2 cells were cultivated in RPMI-1640 (PAN Biotech) supplemented with 10% fetal calf serum and stable glutamine (PAN Biotech). Cells were grown at 37 °C and incubated in humidified air equilibrated with 5% CO2.
A MultiScreenHTS-DV filter plate was incubated at room temperature with 100 μl phosphate-buffered saline (PBS) containing 1% bovine serum albumin (BSA) per well for 30 min. After removal of the PBS/BSA solution, 1 × 10^5 C4-2 cells in Opti-MEM were added to each well. All nonlabelled compounds were dissolved in 300 μl Opti-MEM at the following concentrations: 0, 0.5, 1, 2.5, 5, 10, 25, 50, 100, 500, 1,000 and 5,000 nM. Subsequently, 3 μl of the radiolabelled compound was added, and 50 μl of this mixture was taken to obtain a solution containing 0.75 nM of the radiolabelled ligand. After 45 min incubation at 37 °C, the cells were washed twice with PBS, the radioactivity accumulated in the cells was collected, and the remaining radioactivity was measured in a gamma counter. The inhibitory potency was determined using ^68Ga-labelled PSMA-HBED-CC dimer (i.e. PSMA-10) as the reference. The 50% inhibitory concentration was calculated using a nonlinear regression algorithm (GraphPad Prism 5.01 software). The experiments were performed in quadruplicate.

C4-2 cells = experiment: Determination of specific internalization ratio; assay type: cell-based
Procedure: as §1
For determination of the specific internalization ratio, 24-well plates were incubated for 20 min with 0.1% poly-L-lysine in PBS at room temperature and washed once with PBS. In the next step, 1 ml RPMI containing 1 × 10^5 C4-2 cells was added to each well and incubated overnight. The conditions during the experiment for each compound were: incubation at 37 °C or 4 °C with or without receptor blocking via 2-(phosphonomethyl)pentanedioic acid (2-PMPA; Axxora) at a final concentration of 500 μM. The cells were then incubated with 250 μl of a 30 nM solution of ^203Pb-labelled compound. The plates were incubated either for 45 min in a water bath at 37 °C or on ice at 4 °C. The cells were then washed three times with 1 ml ice-cold PBS and incubated with 0.5 ml glycine (50 mM in HCl, pH 2.8) for 5 min. After an additional washing step with 1 ml ice-cold PBS, the cells were lysed with 0.5 ml 0.3 M NaOH and collected, and the radioactivity was measured with a gamma counter for 1 min. The specific cellular uptake was determined as the percentage of initially added radioactivity bound per 10^6 cells (%IA/10^6 cells) by subtraction of the respective uptake under blocking conditions. All experiments were performed in triplicate.

[8] = Stability of ^203Pb-labelled compounds in human serum; assay type: in vitro ADME; settings: 37 °C, up to 72 h, radio-HPLC
Procedure: The conjugates (1 mM in water, 80 μl, 80 nmol) were added to 400 μl sodium acetate buffer (0.4 M in water, pH 5.0), 10 μl ascorbic acid (20% in water) and 140 μl ^203Pb-chloride solution in 0.04 M HCl, with specific activity approximately 102.6 TBq/g (Lantheus Medical Imaging, North Billerica, MA, USA). The mixture was then heated at 95 °C for 5 min. Labelling was controlled by radio-HPLC. The stability of the ^203Pb-labelled compounds was evaluated in 300 μl human serum at 37 °C for up to 72 h. After precipitation of the serum proteins by addition of two parts acetonitrile, the solution was centrifuged for 5 min at 13,000 rpm (twice) and the supernatant was analysed by radio-HPLC (0–100% MeCN over 5 min, monolith column).

C4-2 tumour-bearing mice [9] = experiment: Planar scintigraphic imaging in tumour-bearing mice; assay type: in vivo; settings: ^203Pb-labelled
Procedure: (§2) The in vivo experiments were carried out in accordance with the laws on animal welfare of the Federal Republic of Germany. For imaging and biodistribution studies, male BALB/c nu/nu mice (20–25 g; Charles River) bearing C4-2 tumour xenografts were used. The mice were inoculated subcutaneously in the right trunk with 5 × 10^6 C4-2 cells in 50% Matrigel in Opti-MEM (1×). For small-animal imaging the mice were anaesthetized with 2% sevoflurane, and then 0.1 nmol (1.0 MBq) of the respective ^203Pb ligand was injected into a tail vein. Serial planar scans were performed using a Gamma Imager-sct (Biospace Lab, Paris, France) with a parallel collimator (35 mm/1.8 mm/0.2 mm) after 10 min, 1 h, 4 h and 24 h. Based on the imaging results, compound CA012 was chosen for biodistribution studies. Experiments were performed in triplicate. For biodistribution, 0.025 nmol (1 MBq) of labelled compound per mouse was administered by injection into a tail vein. After 10 min, 1 h, 4 h and 24 h the mice were killed, the organs were dissected and weighed, and activity was measured using a gamma counter (Packard Cobra Auto-gamma). The organ uptakes were calculated as the percentage of the injected dose per gram of tissue (%ID/g).

C4-2 tumour-bearing mice [10] = experiment: Biodistribution (organ distribution) in tumour-bearing mice; assay type: in vivo; settings: for Organ distribution, Kidneys: 0.025 nmol i.v., n = 3
Procedure: as §2

[11] = ^203Pb-labelled compound 30 nM, 45 min, 2-PMPA blocking subtracted, mean ± SD n = 3

T1 sequence (Q04609 whole entry): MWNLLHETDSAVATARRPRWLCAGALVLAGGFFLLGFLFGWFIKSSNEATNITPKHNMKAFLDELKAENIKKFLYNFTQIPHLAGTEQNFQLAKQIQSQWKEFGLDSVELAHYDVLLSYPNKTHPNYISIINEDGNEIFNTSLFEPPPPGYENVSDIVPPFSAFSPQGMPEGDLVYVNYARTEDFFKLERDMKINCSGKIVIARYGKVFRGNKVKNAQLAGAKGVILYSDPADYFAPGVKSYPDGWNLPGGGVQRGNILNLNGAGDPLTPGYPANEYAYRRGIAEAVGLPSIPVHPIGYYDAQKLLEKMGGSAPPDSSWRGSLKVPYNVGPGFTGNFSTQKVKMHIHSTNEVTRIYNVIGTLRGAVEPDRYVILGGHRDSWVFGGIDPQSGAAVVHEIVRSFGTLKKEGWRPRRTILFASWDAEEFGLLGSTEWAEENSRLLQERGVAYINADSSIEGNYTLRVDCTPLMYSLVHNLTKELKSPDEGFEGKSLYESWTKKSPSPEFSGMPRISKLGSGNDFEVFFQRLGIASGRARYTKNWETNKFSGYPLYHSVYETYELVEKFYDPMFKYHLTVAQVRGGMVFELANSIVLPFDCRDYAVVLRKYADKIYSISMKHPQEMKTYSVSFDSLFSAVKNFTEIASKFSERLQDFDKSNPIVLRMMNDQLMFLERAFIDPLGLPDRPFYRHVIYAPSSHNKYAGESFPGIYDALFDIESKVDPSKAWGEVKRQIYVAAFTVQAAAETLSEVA

Structure (SMILES): O=C([O-])CN1CCN(CC(=O)[O-])CCN(CC(=O)NCC2CCC(C(=O)N[C@@H](Cc3ccc4ccccc4c3)C(=O)NCCCC[C@H](NC(=O)N[C@@H](CCC(=O)O)C(=O)O)C(=O)O)CC2)CCN(CC(=O)[O-])CC1.[177Lu+3] (some centres unmarked) [^177Lu-PSMA-617]
specific internalization [1]: 18 %ID per 10^6cells

Structure (SMILES): O=C(O)CN1CCN(CC(=O)O)CCN(CC(=O)O)CCN(CC(=O)O)CC1 [DOTA, 1,4,7,10-tetraazacyclododecane-1,4,7,10-tetraacetic acid]
pH at which stable complexes with lead(II) are formed [2]: > 3.5

Structure (SMILES): O=C(O)CC[C@H](NC(=O)N[C@@H](CCCCNC(=O)[C@H](Cc1ccc2ccccc2c1)NC(=O)[C@H]1CC[C@H](CNC(=O)CN2CCN(CC(=O)O)CCN(CC(=O)O)CCN(CC(=O)O)CC2)CC1)C(=O)O)C(=O)O [PSMA-617]
affinity (in words) (PSMA [3]): single-digit affinity | kidney accumulation ([4]; mice, after 24 h): 1% | kidney accumulation ([4]; mouse, in vivo, 1 h): 113.3 ± 24.4 %ID/g

Structure (SMILES): NC(=O)CN1CCN(CC(N)=O)CCN(CC(N)=O)CCN(CC(N)=O)CC1 [TCMC, 1,4,7,10-tetra-(2-carbamoyl-methyl)-cyclododecane]
pH at which stable complexes with lead(II) are formed [2]: > 2

Structure (SMILES): O=C(O)CC[C@H](NC(=O)N[C@@H](CCCCNC(=O)C(Cc1ccc2ccccc2c1)NC(=O)C1CCC(CNC(=O)CN2CCN(CC(=O)O)CCN(CC(=O)O)CCN(CC(=O)O)CC2)CC1)C(=O)O)C(=O)O.[213Bi+3] (some centres unmarked) [^213Bi-PSMA-617]
Tissue equivalent dose, Kidneys [5]: 8.1 SvRBE5 | Tissue equivalent dose, Red marrow [5]: 0.5 SvRBE5 | Tissue equivalent dose, Salivary glands [5]: 8.1 SvRBE5

Structure (SMILES): O=C([O-])CC[C@H](NC(=O)N[C@@H](CCCCNC(=O)[C@H](Cc1ccc2ccccc2c1)NC(=O)C1CCC(CNC(=O)CN2CCN(CC(=O)[O-])CCN(CC(=O)[O-])CCN(CC(=O)[O-])CC2)CC1)C(=O)[O-])C(=O)[O-].[225Ac].[H+].[H+].[H+] (some centres unmarked) [^225Ac-PSMA-617]
Tissue equivalent dose, Kidneys [6]: 4.2 SvRBE5 | Tissue equivalent dose, Red marrow [6]: 0.3 SvRBE5 | Tissue equivalent dose, Salivary glands [6]: 13.8 SvRBE5

Structure (SMILES): O=C(O)CC[C@H](NC(=O)N[C@@H](CCCCNC(=O)C(Cc1ccc2ccccc2c1)NC(=O)C1CCC(CNC(=O)CN2CCN(CC(=O)O)CCN(CC(=O)O)CCN(CC(=O)O)CC2)CC1)C(=O)O)C(=O)O.[68Ga+3] (some centres unmarked) [^68Ga-PSMA-617]
tumour uptake ([4]; mice): 8.5 ± 4.1 %ID/g

Ki (PSMA [7]): 24.3 ± 3.7 nM | stability in human serum [8]: high stability | kidney clearance (comparison) (C4-2 tumour-bearing mice [9]; Fig. 4): faster kidney clearance than CA009 | Organ distribution, Kidneys (C4-2 tumour-bearing mice [10]; C4-2 tumour-bearing mice, 1 h): 5.1 ± 2.5 % ID/g | Organ distribution, Kidneys (C4-2 tumour-bearing mice [10]; C4-2 tumour-bearing mice, 24 h): 0.9 ± 0.1 % ID/g | kidney accumulation (C4-2 tumour-bearing mice [10]; mice, after 24 h): 2%
Structure (SMILES): NC(=O)CN1CCN(CC(N)=O)CCN(CC(=O)NCC2CCC(C(=O)NC(Cc3ccc4ccccc4c3)C(=O)NCCCC[C@H](NC(=O)N[C@@H](CCC(=O)O)C(=O)O)C(=O)O)CC2)CCN(CC(N)=O)CC1 (some centres unmarked) [CA012]
specific ligand-induced internalization (C4-2 cells): 15.6 ± 2.1 %IA/10^6 cells | Specific cell surface (C4-2 cells; [11]): 132.1 ± 4.3 %IA/10^6 cells | Specific lysate (specific internalization) (C4-2 cells; [11]): 15.6 ± 2.1 %IA/10^6 cells | specific uptake in tumours versus other organs (C4-2 tumour-bearing mice [10]; in vivo, C4-2 tumour-bearing mice): higher specific uptake in tumours than in other organs

Ki (PSMA [7]): 28.1 ± 2.9 nM | stability in human serum [8]: high stability | tumour uptake in mice (planar scintigraphy) (C4-2 tumour-bearing mice [9]; 1 h after injection, Fig. 3): low tumour uptake
Structure (SMILES): NC(=O)CN1CCN(CC(N)=O)CCN(CC(=O)NC(Cc2ccc3ccccc3c2)C(=O)NCCCC[C@H](NC(=O)N[C@@H](CCC(=O)O)C(=O)O)C(=O)O)CCN(CC(N)=O)CC1 (some centres unmarked) [CA011]
